Source: patent US9260408B2, “Dihydroquinoline-2-one derivatives” (Hoffmann-La Roche Inc., priority 2011, dated 2016)
Structures can show the parent of a compound that is named as a salt.

Tests used:
human CYP11B2 = molecular target: T1, human CYP11B2 (Homo sapiens, UniProt P19099); assay: G-402 cellular enzyme assay, human CYP11B2 (aldosterone release, HTRF); format: cell-based; settings: G-402 cells expressing human CYP11B2; 1 μM Deoxycorticosterone
T1 construct: expressed in transfected cells
T1 sequence (P19099 25-503): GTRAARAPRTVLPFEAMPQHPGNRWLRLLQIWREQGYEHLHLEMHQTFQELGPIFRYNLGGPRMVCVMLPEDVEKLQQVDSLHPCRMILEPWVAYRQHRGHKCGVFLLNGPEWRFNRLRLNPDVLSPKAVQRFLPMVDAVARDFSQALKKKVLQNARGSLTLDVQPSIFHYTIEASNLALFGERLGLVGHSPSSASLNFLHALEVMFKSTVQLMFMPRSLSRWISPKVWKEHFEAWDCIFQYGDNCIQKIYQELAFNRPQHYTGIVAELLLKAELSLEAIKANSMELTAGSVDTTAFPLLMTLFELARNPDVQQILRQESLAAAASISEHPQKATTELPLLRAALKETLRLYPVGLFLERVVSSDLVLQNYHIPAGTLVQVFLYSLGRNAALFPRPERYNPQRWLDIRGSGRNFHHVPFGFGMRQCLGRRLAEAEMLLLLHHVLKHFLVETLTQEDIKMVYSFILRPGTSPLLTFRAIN
Procedure, shortened: (§1)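 G-402 cells stably expressing human CYP11B2 or CYP11B1, in DMEM/F12 with 2.5% charcoal-treated FCS, were incubated 16 h with compound plus 1 μM deoxycorticosterone (CYP11B2) or 1 μM deoxycortisol (CYP11B1). Aldosterone or cortisol in the supernatant measured by HTRF; EC50 from a 4-parameter MMF fit.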

human CYP11B1 = molecular target: T2, human CYP11B1 (Homo sapiens, UniProt P15538); assay: G-402 cellular enzyme assay, human CYP11B1 (cortisol release, HTRF); format: cell-based; settings: G-402 cells expressing human CYP11B1; 1 μM Deoxycortisol
T2 construct: expressed in transfected cells
T2 sequence (P15538 25-503): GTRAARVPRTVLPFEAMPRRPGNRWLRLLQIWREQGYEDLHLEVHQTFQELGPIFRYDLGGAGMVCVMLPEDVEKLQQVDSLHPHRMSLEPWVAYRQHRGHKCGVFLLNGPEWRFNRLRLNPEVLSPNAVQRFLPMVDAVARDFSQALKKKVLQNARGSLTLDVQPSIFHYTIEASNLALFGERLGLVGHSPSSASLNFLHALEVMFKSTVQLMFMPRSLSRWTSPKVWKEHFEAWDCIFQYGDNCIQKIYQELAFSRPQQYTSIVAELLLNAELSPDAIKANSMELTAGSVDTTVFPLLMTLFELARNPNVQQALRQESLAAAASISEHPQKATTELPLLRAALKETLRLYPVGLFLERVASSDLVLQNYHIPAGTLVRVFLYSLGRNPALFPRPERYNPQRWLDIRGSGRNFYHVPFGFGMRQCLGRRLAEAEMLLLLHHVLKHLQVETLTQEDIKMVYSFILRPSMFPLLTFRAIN
Procedure, shortened: as §1

Structure (SMILES) | EC50 (human CYP11B2) [nM] | EC50 (human CYP11B1) [nM]
CN1C(=O)CCc2cc(-c3cncc(O[C@H]4CCCNC4)c3)ccc21 [Example 61, 1-Methyl-6-[5-((S)-piperidin-3-yloxy)-pyridin-3-yl]-3,4-dihydro-1H-quinolin-2-one] | 508 | 20100
CN1C(=O)CCc2cc(-c3cncc(OC4CCNCC4)c3)ccc21 [Example 62, 1-Methyl-6-[5-(piperidin-4-yloxy)-pyridin-3-yl]-3,4-dihydro-1H-quinolin-2-one hydrochloride] | 177 | 8540
CN1C(=O)CCc2cc(-c3cncc(OC[C@@H]4CCN4)c3)ccc21 [Example 63, 6-[5-((S)-1-Azetidin-2-ylmethoxy)-pyridin-3-yl]-1-methyl-3,4-dihydro-1H-quinolin-2-one] | 731 | 16000
CN1C(=O)CCc2cc(-c3cncc(O[C@@H]4CCNC4)c3)c(F)cc21 [Example 67, 7-Fluoro-1-methyl-6-[5-((R)-pyrrolidin-3-yloxy)-pyridin-3-yl]-3,4-dihydro-1H-quinolin-2-one hydrochloride] | 160 | 7670
CN1C(=O)CCc2cc(-c3cncc(O[C@@H]4CCNC4)c3)ccc21 [Example 68, 1-Methyl-6-[5-((R)-pyrrolidin-3-yloxy)-pyridin-3-yl]-3,4-dihydro-1H-quinolin-2-one hydrochloride] | 350 | 33700
CN1C(=O)CCc2cc(-c3cncc(C4(N)COC4)c3)ccc21 [Example 69, 6-[5-(3-Amino-oxetan-3-yl)-pyridin-3-yl]-1-methyl-3,4-dihydro-1H-quinolin-2-one hydrochloride] | 411 | 3490
CN1C(=O)CCc2cc(-c3cncc(OC4CNC4)c3)ccc21 [Example 70, 6-[5-(Azetidin-3-yloxy)-pyridin-3-yl]-1-methyl-3,4-dihydro-1H-quinolin-2-one hydrochloride] | 202 | 15600
CN1C(=O)CCc2cc(-c3cncc(O[C@H]4CC[C@H](N)CC4)c3)ccc21 [Example 71, 6-[5-((trans)-4-amino-cyclohexyloxy)-pyridin-3-yl]-1-methyl-3,4-dihydro-1H-quinolin-2-one hydrochloride] | 81 | 2500
CN1C(=O)CCc2cc(-c3cncc(C(C)(C)N)c3)ccc21 [Example 72, 6-[5-(1-Amino-1-methyl-ethyl)-pyridin-3-yl]-1-methyl-3,4-dihydro-1H-quinolin-2-one] | 7 | 101
CN1C(=O)CCc2cc(-c3cncc(CN)c3)c(F)cc21 [Example 73, 6-(5-Aminomethyl-pyridin-3-yl)-7-fluoro-1-methyl-3,4-dihydro-1H-quinolin-2-one] | 17 | 575
Cc1noc(C)c1C(=O)NCc1cncc(-c2ccc3c(c2)CCC(=O)N3C)c1 [Example 75, 3,5-Dimethyl-isoxazole-4-carboxylic acid [5-(1-methyl-2-oxo-1,2,3,4-tetrahydro-quinolin-6-yl)-pyridin-3-ylmethyl]-amide] | 8 | 509
CN1C(=O)CCc2cc(-c3cncc(O[C@H]4CCN(C(=O)C5CC5)C4)c3)ccc21 [Example 76, 6-[5-((S)-1-Cyclopropanecarbonyl-pyrrolidin-3-yloxy)-pyridin-3-yl]-1-methyl-3,4-dihydro-1H-quinolin-2-one] | 23 | 452
CC(C)CC(=O)NCc1cncc(-c2ccc3c(c2)CCC(=O)N3C)c1 [Example 77] | 42 | 223
CN1C(=O)CCc2cc(-c3cncc(CNC(=O)CC(F)(F)F)c3)ccc21 [Example 78] | 121 | 1140
CN1C(=O)CCc2cc(-c3cncc(CNC(=O)C(C)(C)O)c3)ccc21 [Example 79] | 35 | 302
Cc1nnc(C(=O)NCc2cncc(-c3ccc4c(c3)CCC(=O)N4C)c2)o1 [Example 80] | 43 | 493
CCC(=O)N1CCC[C@H](Oc2cncc(-c3ccc4c(c3)CCC(=O)N4C)c2)C1 [Example 81] | 172 | 4640
COc1ncc(C(=O)NCc2cncc(-c3ccc4c(c3)CCC(=O)N4C)c2)cn1 [Example 82] | 8 | 20
CN1C(=O)CCc2cc(-c3cncc(CNC(=O)c4nccn4C)c3)ccc21 [Example 83] | 9 | 46

Structure (SMILES) | EC50 (human CYP11B2) [nM] | EC50 (human CYP11B1) [nM]
CN1C(=O)CCc2cc(-c3cncc(CNC(=O)c4coc(C(F)(F)F)c4)c3)ccc21 [Example 84] | 34 | 526
CN1C(=O)CCc2cc(-c3cncc(CNC(=O)c4cccnn4)c3)ccc21 [Example 85] | 3 | 48
CN1C(=O)CCc2cc(-c3cncc(CNC(=O)c4cncnc4)c3)ccc21 [Example 86] | 4 | 108
CN1C(=O)CCc2cc(-c3cncc(CNC(=O)c4cnn(C)c4)c3)ccc21 [Example 87, 1-Methyl-1H-pyrazole-4-carboxylic acid [5-(1-methyl-2-oxo-1,2,3,4-tetrahydro-quinolin-6-yl)-pyridin-3-ylmethyl]-amide] | 17 | 1070
CCC(=O)N1CCC(Oc2cncc(-c3ccc4c(c3)CCC(=O)N4C)c2)CC1 [Example 88] | 1 | 13
CN1C(=O)CCc2cc(-c3cncc(CNC(=O)c4ccnnc4)c3)ccc21 [Example 89] | 14 | 276
CCC(=O)N1CC[C@H](Oc2cncc(-c3ccc4c(c3)CCC(=O)N4C)c2)C1 [Example 90] | 11 | 1500
CN1C(=O)CCc2cc(-c3cncc(OC[C@@H]4CCN4C(=O)C4CC4)c3)ccc21 [Example 91] | 43 | 3070
Cc1nocc1C(=O)NCc1cncc(-c2ccc3c(c2)CCC(=O)N3C)c1 [Example 92] | 16 | 632
Cc1cc(F)cc(C)c1C(=O)NCc1cncc(-c2ccc3c(c2)CCC(=O)N3C)c1 [Example 93] | 23 | 613
CCC(=O)N1CC[C@H]1COc1cncc(-c2ccc3c(c2)CCC(=O)N3C)c1 [Example 94] | 23 | 1340
CN1C(=O)CCc2cc(-c3cncc(CNC(=O)c4cc(Cl)nnc4Cl)c3)ccc21 [Example 95] | 17 | 1780
CN1C(=O)CCc2cc(-c3cncc(CNC(=O)c4cn(CC(F)(F)F)nc4C4CC4)c3)ccc21 [Example 96] | 22 | 1680
CN1C(=O)CCc2cc(-c3cncc(CNC(=O)c4ccccn4)c3)ccc21 [Example 97] | 6 | 111
Cc1nn(C)cc1C(=O)NCc1cncc(-c2ccc3c(c2)CCC(=O)N3C)c1 [Example 98] | 11 | 360
CN1C(=O)CCc2cc(-c3cncc(CNC(=O)c4ncccn4)c3)ccc21 [Example 99] | 35 | 1120
COc1ccc(C(=O)NCc2cncc(-c3ccc4c(c3)CCC(=O)N4C)c2)nn1 [Example 100] | 7 | 140
Cc1oncc1C(=O)NCc1cncc(-c2ccc3c(c2)CCC(=O)N3C)c1 [Example 101] | 2 | 179
Cc1noc(C)c1C(=O)NCCOc1cncc(-c2ccc3c(c2)CCC(=O)N3C)c1 [Example 102] | 14 | 1440
